From US20170283458A1, “COLLAGEN-BINDING SYNTHETIC PEPTIDOGLYCANS FOR WOUND HEALING” (Symic Biomedical, Inc., priority 2009, published 2017)
Ends that are not written are not given here.

How the values were obtained:
collagen I = biological target: T1, collagen I (Bos taurus, UniProt P02453+P02465); assay: Cryo-SEM measurements on collagen I, fibril diameter; format: biochemical; conditions: 4 mg/mL collagen, 10:1 collagen:treatment, cryo-SEM 20,000×
T1 construct: purchased Inamed, Freemont, Calif; Nutragen
T1 sequence (P02453 162-1217 limits assumed): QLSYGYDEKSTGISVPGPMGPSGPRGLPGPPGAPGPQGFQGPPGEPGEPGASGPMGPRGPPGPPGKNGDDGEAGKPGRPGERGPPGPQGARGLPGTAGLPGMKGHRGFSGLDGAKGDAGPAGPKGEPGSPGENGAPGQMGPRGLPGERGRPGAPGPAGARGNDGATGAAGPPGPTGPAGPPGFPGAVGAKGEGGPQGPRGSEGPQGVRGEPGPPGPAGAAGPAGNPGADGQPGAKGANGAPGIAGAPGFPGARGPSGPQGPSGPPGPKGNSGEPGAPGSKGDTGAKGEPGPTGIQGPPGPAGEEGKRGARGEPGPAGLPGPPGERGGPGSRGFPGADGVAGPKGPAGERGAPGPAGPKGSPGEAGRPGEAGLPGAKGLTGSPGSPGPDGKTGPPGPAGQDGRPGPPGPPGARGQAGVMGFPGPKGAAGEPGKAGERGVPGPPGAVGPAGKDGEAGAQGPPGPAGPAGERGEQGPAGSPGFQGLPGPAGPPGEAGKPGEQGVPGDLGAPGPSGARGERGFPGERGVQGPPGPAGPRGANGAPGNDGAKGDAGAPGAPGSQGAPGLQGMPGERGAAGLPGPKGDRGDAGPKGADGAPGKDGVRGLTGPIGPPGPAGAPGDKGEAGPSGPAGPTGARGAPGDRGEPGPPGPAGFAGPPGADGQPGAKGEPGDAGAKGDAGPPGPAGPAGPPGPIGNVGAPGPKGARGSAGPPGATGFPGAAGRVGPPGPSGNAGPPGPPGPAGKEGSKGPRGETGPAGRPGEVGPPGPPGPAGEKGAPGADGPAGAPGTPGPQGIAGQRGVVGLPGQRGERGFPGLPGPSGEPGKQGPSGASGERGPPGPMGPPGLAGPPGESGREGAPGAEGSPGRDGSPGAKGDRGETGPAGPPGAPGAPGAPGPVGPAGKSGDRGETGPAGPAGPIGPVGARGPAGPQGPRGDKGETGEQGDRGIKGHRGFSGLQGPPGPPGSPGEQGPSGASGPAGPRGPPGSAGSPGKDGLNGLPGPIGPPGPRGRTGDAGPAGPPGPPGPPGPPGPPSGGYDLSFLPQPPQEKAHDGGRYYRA
T1 sequence (P02465 80-1117 limits assumed): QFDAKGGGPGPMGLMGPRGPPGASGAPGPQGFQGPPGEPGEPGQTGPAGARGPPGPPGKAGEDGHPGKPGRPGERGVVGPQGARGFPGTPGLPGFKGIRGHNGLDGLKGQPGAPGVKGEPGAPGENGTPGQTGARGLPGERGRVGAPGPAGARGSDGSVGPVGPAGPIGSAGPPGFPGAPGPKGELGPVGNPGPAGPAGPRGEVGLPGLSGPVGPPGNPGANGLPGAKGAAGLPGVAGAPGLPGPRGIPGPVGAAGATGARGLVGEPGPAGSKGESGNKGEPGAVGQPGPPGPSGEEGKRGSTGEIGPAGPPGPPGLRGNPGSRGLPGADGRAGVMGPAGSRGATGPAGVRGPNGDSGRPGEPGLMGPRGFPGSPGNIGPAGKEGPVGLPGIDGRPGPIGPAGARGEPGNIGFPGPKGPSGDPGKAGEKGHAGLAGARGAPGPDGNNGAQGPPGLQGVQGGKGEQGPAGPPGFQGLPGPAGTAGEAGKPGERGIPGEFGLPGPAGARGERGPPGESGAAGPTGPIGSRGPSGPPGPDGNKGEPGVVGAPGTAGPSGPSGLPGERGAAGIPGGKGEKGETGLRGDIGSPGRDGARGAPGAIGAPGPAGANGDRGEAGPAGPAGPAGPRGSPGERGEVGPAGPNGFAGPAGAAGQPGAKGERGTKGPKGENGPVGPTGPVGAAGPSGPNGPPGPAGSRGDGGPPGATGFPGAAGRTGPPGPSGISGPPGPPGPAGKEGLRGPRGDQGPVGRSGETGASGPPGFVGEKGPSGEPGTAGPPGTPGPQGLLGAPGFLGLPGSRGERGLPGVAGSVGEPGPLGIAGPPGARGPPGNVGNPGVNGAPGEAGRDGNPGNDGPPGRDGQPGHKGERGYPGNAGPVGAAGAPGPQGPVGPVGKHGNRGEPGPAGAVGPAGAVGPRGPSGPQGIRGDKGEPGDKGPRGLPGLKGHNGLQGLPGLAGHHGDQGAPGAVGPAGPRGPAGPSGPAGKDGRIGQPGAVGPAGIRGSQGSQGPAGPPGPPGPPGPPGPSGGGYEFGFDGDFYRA
Method: (§1) Gels were made with Nutragen collagen (Inamed, Freemont, Calif.) at a final concentration of 4 mg/mL collagen. Nutragen stock is 6.4 mg/mL in 10 mM HCl. Gel preparation was performed on ice, and fresh samples were made before each test. The collagen solution was adjusted to physiologic pH and salt concentration, by adding appropriate volumes of 10×PBS (phosphate buffered saline), 1×PBS, and 1M NaOH. For most experiments, samples of DS, decorin, DS-SILY, or DS-Dc13 were added at a 10:1 collagen:treatment molar ratio by a final 1×PBS addition (equal volumes across treatments) in which the test samples were dissolved at appropriate concentrations. In this way, samples are constantly kept at pH 7.4 and physiologic salt concentration. Collagen-alone samples received a 1×PBS addition with no sample dissolved. Fibrillogenesis will be induced by incubating neutralized collagen solutions at 37° C. overnight in a humidified chamber to avoid dehydration. Gel solutions with collagen:treatment molar ratios of other than 10:1 were prepared similarly.
Gels for cryo-SEM were formed, as in EXAMPLE 16, directly on the SEM stage and incubated at 37° C. overnight. The stages were then secured in a cryo-holder and plunged into liquid nitrogen slush. Samples were then transferred to a Gatan Alto 2500 pre-chamber cooled to −170° C. under vacuum. A free-break surface was created with a cooled scalpel, and each sample evaporated under sublimation conditions for 20 min. The sample was coated by platinum sputter coating for 120 s. Samples were transferred to the cryo-stage at −130° C. and regions with similar orientation were imaged for comparison across treatments. Analysis of the images was performed to determine the fibril diameter distribution, presented in histograms adjacent the corresponding image in FIG. 14, and average fibril diameter, FIG. 17 an 18;. Fibril diameter was calculated using ImageJ software (NIH) measuring individual fibrils by hand (drawing a line across fibrils and measuring its length after properly setting the scale). At least 45 independent fibril measurement were recorded for average fibril diameter calculations.

HCA SMCs = assay: Measurement of elastin (Fastin assay) in cell-seeded collagen gels; format: cell-based, human; conditions: gels cultured for 10 days
Method: Collagen gels seeded with HCA SMCs were prepared as described in EXAMPLE 30. Differentiation medium was changed every three days and gels were cultured for 10 days. Collagen gels containing no cells were used as a control. Gels were rinsed in 1×PBS overnight to remove serum protein, and gels were tested for elastin content using the Fastin elastin assay per manufacturers protocol (Biocolor, County […].). Briefly, gels were solubilized in 0.25 M oxalic acid by incubating at 100° C. for 1 hr. Elastin was precipitated and samples were then centrifuged at 11,000×g for 10 min. The solubilized collagen supernatant was removed and the elastin pellet was stained by Fastin Dye Reagent for 90 min at room temperature. Samples were centrifuged at 11,000×g for 10 min and unbound dye in the supernatant was removed. Dye from the elastin pellets was released by the Fastin Dye Dissociation Reagent, and 100 μL samples were transferred to a 96-well plate (Costar). Absorbance was measured at 513 nm, and elastin content was calculated from an α-elastin standard curve.

collagen type I gels = biological target: T2, collagen type I gels (Bos taurus, UniProt P02453+P02465); assay: Viscoelastic characterization of collagen type I gels (rheometer); format: biochemical; conditions: varying ratios of collagen to additive, vs untreated collagen
T2 construct: purchased Inamed, Freemont, Calif; Nutragen
T2 sequence (P02453 162-1217 limits assumed): as the sequence (P02453 162-1217 limits assumed) above
T2 sequence (P02465 80-1117 limits assumed): as the sequence (P02465 80-1117 limits assumed) above
Method: as §1, with “similarly. Collagen gels were prepared as described in EXAMPLE 16 and prior to heating, 200 μL of each treatment were pipetted onto the wettable surface of hydrophobically printed slides (Tekdon). The PTFE printing restricted gels to the 20 mm diameter wettable region. Gels were formed in a humidified incubator at 37° C. overnight prior to mechanical testing. […]” for “similarly.”

collagen [1] = biological target: T3, collagen (Bos taurus, UniProt P02453+P02465); assay: Fibrillogenesis turbidity assay (absorbance at 313 nm); format: biochemical
T3 construct: purchased Inamed, Freemont, Calif; Nutragen
T3 sequence (P02453 162-1217 limits assumed): as the sequence (P02453 162-1217 limits assumed) above
T3 sequence (P02465 80-1117 limits assumed): as the sequence (P02465 80-1117 limits assumed) above
Method: as §1
Collagen fibrillogenesis was monitored by measuring turbidity related absorbance at 313 nm providing information on rate of fibrillogenesis and fibril diameter. Gel solutions were prepared as described in EXAMPLE 16 (4 mg/mL collagen, 10:1 collagen:treatment, unless otherwise indicated) and 50 uL/well were added at 4° C. to a 384-well plate. The plate was kept at 4° C. for 4 hours before initiating fibril formation. A SpectraMax M5 at 37° C. was used to measure absorbance at 313 nm at 30 s intervals for 6 hours.
A fibrillogenesis assay as described for DS-SILY, EXAMPLE 19, performed with the conjugate DS-Dc13.

collagen gels = biological target: T4, collagen gels (Bos taurus, UniProt P02453+P02465); assay: Cryo-SEM measurement of fibril density; format: biochemical; conditions: 10:1 molar ratio, cryo-SEM 10,000×
T4 construct: purchased Inamed, Freemont, Calif; Nutragen
T4 sequence (P02453 162-1217 limits assumed): as the sequence (P02453 162-1217 limits assumed) above
T4 sequence (P02465 80-1117 limits assumed): as the sequence (P02465 80-1117 limits assumed) above
Method: Collagen gels were formed in the presence of each additive at a 10:1 molar ratio, as described in EXAMPLE 16, directly on the SEM stage, processed, and imaged as described. Images at 10,000× were analyzed for fibril density calculations. Images were converted to 8-bit black and white, and threshold values for each image were determined using ImageJ software (NIH). The threshold was defined as the value where all visible fibrils are white, and all void space is black. The ratio of white to black area was calculated using MatLab software. All measurements were taken in triplicate and thresholds were determined by an observer blinded to the treatment.

[2] = system: Human coronary artery smooth muscle cells (HCA SMC); assay: Gel compaction by smooth muscle cells in collagen gels; format: cell-based
Method: Human coronary artery smooth muscle cells (HCA SMC) (Cascade Biologics) were cultured in growth medium (Medium 231 supplemented with smooth muscle growth factor). Cells from passage 3 were used for all experiments. Differentiation medium (Medium 231 supplemented with 1% FBS and 1× pen/strep) was used for all experiments unless otherwise noted.
Collagen gels were prepared with each additive as described with the exception that the 1×PBS example addition was omitted to accommodate the addition of cells in media. After incubating on ice for 30 min, HCA SMCs in differentiation medium were added to the gel solutions to a final concentration of 1×10^6 cells/mL. Gels were formed in quadruplicate in 48-well non-tissue culture treated plates (Costar) for 6 hrs before adding 500 μL/well differentiation medium. Gels were freed from the well edges after 24 hrs. Medium was changed every 2-3 days and images for compaction were taken at the same time points using a Gel Doc System (Bio-Rad). The cross-sectional area of circular gels correlating to degree of compaction was determined using ImageJ software (NIH). Gels containing no cells were used as a negative control and cells in collagen gels absent additive were used as a positive control. […] By day 10 all gels had compacted to approximately 10% of the original gel area, and differences between additives were small.

[3] = system: Human aortic smooth muscle cells; assay: Collagen remodeling: hydroxyproline content in medium of cell-seeded collagen gels; format: cell-based; conditions: vs collagen alone; cultures up to 30 days
Method: Following a method by Grassl, et al. (Grassl, et al., Journal of Biomedical Materials Research 2002, 60, (4), 607-612), which is herein incorporated in its entirety, collagen gels with or without synthetic PG mimics were formed as described in EXAMPLE 16. Human aortic smooth muscle cells (Cascade Biologics, Portland, Oreg.) were seeded within collagen gels by adding 4×10^6 cells/mL to the neutralized collagen solution prior to incubation. The cell-collagen solutions were pipetted into an 8-well Lab-Tek chamber slide and incubated in a humidified 37° C. and 5% CO2 incubator. After gelation, the cell-collagen gels will be covered with 1 mL Medium 231 as prescribed by Cascade. Every 3-4 days, the medium was removed from the samples and the hydroxyproline content measured by a standard hydroxyproline assay (Reddy, 1996).
To measure degraded collagen in the supernatant medium, the sample was lyophilized, the sample hydrolyzed in 2M NaOH at 120° C. for 20 min. After cooling, free hydroxyproline was oxidized by adding chloramine-T (Sigma) and reacting for 25 min at room temperature. Ehrlich's aldehyde reagent (Sigma) was added and allowed to react for 20 min at 65° C. and followed by reading the absorbance at 550 nm on an M-5 spectrophotometer (Molecular Devices). […] Cultures were incubated for up to 30 days and three samples of each treatment measured. […]

Human dermal fibroblasts = assay: TGF-β1 production by human dermal fibroblasts (ELISA); format: cell-based; conditions: 1.4 μM treatment, 48 hours
Method: Human dermal fibroblasts (Cascade Biologics) were seeded onto 96-well tissue culture polystyrene plates at a seeding density of 1.83×10^3 cells/well. Cells adhered overnight and cell medium was aspirated. 100 μL/well of cell medium containing a final concentration of 1.4 μM treatment delivered from a concentrated solution of treatment in 1×PBS was added to the cells. After 48 hours, cell medium was removed and frozen at −80 C until further testing. TGF-β1 was measured by ELISA using a kit and protocol from R&D Systems.

collagen [4] = assay: SILY binding to collagen (Biacore surface plasmon resonance)
Method: Biacore studies were performed on a Biacore 2000 using a CM-3 chip (Biacore, Inc., Piscataway, N.J.). The CM-3 chip is coated with covalently attached carboxymethylated dextran, which allows for attachment of the substrate collagen via free amine groups. Flow cells (FCs) 1 and 2 were used, with FC-1 as the reference cell and FC-2 as the collagen immobilized cell. Each FC was activated with EDC-NHS, and 1500RU of collagen was immobilized on FC-2 by flowing 1mg/mL collagen in sodium acetate, pH 4, buffer at 5 μL/min for 10 min. Unreacted NHS-ester sites were capped with ethanolamine; the control FC-1 was activated and capped with ethanolamin.
To determine peptide binding affinity, SILY was dissolved in 1× HBS-EP buffer (Biacore) at varying concentrations from 100 uM to 1.5 μm in 2-fold dilutions. […] The first 10 injections were buffer injections, which help to prime the system, followed by randomized sample injections, run in triplicate. Analysis was performed using BIAevaluation software (Biacore).

Row | Substance | average fibril diameter (collagen I) | elastin production (HCA SMCs) | stiffness of collagen gel (storage modulus G') (collagen type I gels) | rate of fibrillogenesis (collagen [1]; 4 mg/mL collagen, 10:1 collagen:treatment unless otherwise indicated) | fibrillogenesis and overall absorbance (collagen [1]; 1:1 or 10:1 collagen to treatment, FIG. 12) | fibril density (ratio of fibril containing area to void space) (collagen gels) | gel compaction at early time points ([2]; Days 3 and 5) | gel compaction ([2]; day 10) | collagen degradation measured by hydroxyproline content in cell medium [3] | TGF-β1 in cell medium (Human dermal fibroblasts) | reversibility of binding to collagen (collagen [4]; association/disassociation curves, FIG. 2) | Kd (collagen [4]; calculated from the on-off binding kinetics, collagen immobilized on CM-3 chip)
1 | DS-Dc13: dermatan sulfate conjugated via PDPH to Dc13 peptide, molar ratio about 1 (SYIRIADTNITGC; also: dermatan sulfate conjugate via PDPH, molar ratio about 1, site not given here) | significant decrease in average fibril diameter | significantly decreased elastin production over untreated collagen | increase the stiffness of the resulting collagen gel over untreated collagen | decrease the rate of fibrillogenesis | delays fibrillogenesis and decreases overall absorbance in a dose-dependent manner | not significant compared to collagen | significantly compacted more than gels made of collagen alone or collagen with dermatan sulfate | slightly, but significantly, less compact than gels treated with decorin or collagen | – | – | – | –
2 | RRANAALKAGELYKSILYGC | significant decrease in average fibril diameter | – | – | – | – | significantly greater fibril density | – | – | greater collagen degradation compared to collagen alone | significantly decreased TGF-β1 | binds reversibly with collagen | 1200 nM
3 | dermatan sulfate [reference compound] | – | significantly decreased elastin production over untreated collagen | increase the stiffness of the resulting collagen gel over untreated collagen | – | – | – | – | – | – | significantly decreased TGF-β1 | – | –
